Data from patent publication US20100144773A1 (priority 2007, published 2010).
Like-named read-outs stand apart in the source and are kept apart here.

System: male Wistar rats injected with beta-amyloid peptide 25-35 into NBM
Settings: 1 mg/kg once a day for 7 days from day 16 after amyloid injection, retention trial 24 h after acquisition, cut-off 180 s, n=8, control 48 ± 11
Experimental: Beta-amyloid was administered bilaterally into NBM of male Wistar rats in dose of 2 μg per each side. […] Control rats received saline intranasally. On day next to the last day of the treatment, passive avoidance performance in rats was tested for two consecutive days. A two-compartment, step-through, passive avoidance apparatus consisting of illuminated (25×40×25 cm) and dark (25×40×25 cm) compartments attached to an electrified grid floor and separated by a guillotine door (8×8 cm) was used. In the acquisition trial, the rat was placed in the illuminated compartment in a position its tail directed to the closed door for 2 min to habituate to the apparatus. The guillotine door was opened and time to enter to dark compartment was recorded. When the rat entered to dark compartment completely (four foots in dark compartment), the guillotine door was closed and the rat was delivered an electrical shock of 0.8 mA for 3 sec through the grid floor. After the shock, the rat was immediately placed in home cage. In the retention trial, conducted 24 h after the acquisition trial, the rat was placed in the illuminated compartment and the retention latency to enter into the dark compartment was recorded until 180 s had elapsed. […] Data are presented as retention latency mean±SD (n=8).

SMILES | Latency (retention latency to enter the dark compartment, mean±SD) (intranasally) | Latency (retention latency to enter the dark compartment, mean±SD) (intraperitoneally)
C[N+](C)(C)CCO.O=C([O-])CCC(=O)O [Compound of formula (I)] | 103 ± 18 s | 55 ± 18 s
C[N+](C)(C)CCO.O=C([O-])CCC(=O)[O-].[Na+] [Compound of formula (III)] | 87 ± 19 s | 53 ± 28 s
C[N+](C)(C)CCO.O=C([O-])CCC(=O)[O-].[K+] [Compound of formula (IV)] | 65 ± 16 s | 49 ± 17 s
